# “Also recorded” adds a separate entry of the source.
# Experiments:
# human LOX-1 = human LOX-1 (Homo sapiens, UniProt P78380); test: Thermal shift assay with purified LOX-1 protein; format: binding; set-up: It encodes for 147 amino acids for the LOX-1 fragment (residues 136-273); made in house; host or cells: E. coli BL21 (DE3), co-expressed with DsbC; conditions: for thermal shift (in words): differential scanning fluorimetry; for thermal shift of LOX-1 protein: LOX-1 protein 4 μM, ligand 50 μM, shifts in Celsius
# Excerpt: FIG. 2A, FIG. 2B and FIG. 2C depict the docking of the 5 lead compounds and the thermal denaturation assay: (FIG. 2A) The figure depicts the docking of the 5 lead compounds in the binding pocket of LOX-1. LOX-1 is shown as a ribbon model with one monomer in magenta and the other in blue. The compounds are shown as stick models in separate colors. (FIG. 2B) Hydrogen bonding interactions of the compounds as they dock to LOX-1. (FIG. 2C) The measured thermal shifts (in Celsius) are depicted for all five molecules. The solutions contained LOX-1 protein at 4 μM concentration. The ligand concentrations were 50 μM.
# As the next step, a protein assay was performed to assess the interaction of the lead compounds with LOX-1 protein for an additional confirmation of the binding to LOX1. The extracellular domain of LOX-1 was expressed and the protein was purified. Using the purified protein, a thermal shift assay was performed. The technique involves measuring thermal denaturation temperatures of the protein in the presence and absence of inhibitors. A larger shift in thermal denaturation is indicative of a tight binding of the ligand to the protein.
# In short, the thermal shift assay was performed using a real-time PCR detection system with the fluorescent dye sypro orange to monitor protein unfolding. Fluorescence increases upon protein unfolding because sypro orange has higher quantum in lower dielectric medium and low quantum in higher dielectric medium. During the thermal shift assay a protein exposes the hydrophobic region which corresponds to a lower dielectric environment. The thermal shift assay instrument contains accurate temperature control devices and a CCD detector for simultaneous imaging of fluorescence changes in the microplate. The typical reaction volume of a thermal shift assay is 20 μl, which includes the protein solution, the test compound solution, and the sypro orange. The temperature in the real-time PCR machine during the thermal shift assay was ramped 0.5° C./minute till 100° C.
# The C-terminal domain of LOX-1 was expressed by using the protocols reported earlier^12. As this domain contains several disulfide bridges, it was co-expressed with DsbC, a Chaperone disulfide isomerase. The genes were custom synthesized by Genscript (Piscataway, N.J.) using gene map described in Park el al^12. It encodes for 147 amino acids for the LOX-1 fragment (residues 136-273) and 236 amino acids for DsbC. The gene was incorporated into a pET15b vectors by Genscript. The vectors were then transformed into Dh5α cells for amplification and BL21 (DE3) E. coli (Novagen) cells for expression. The proteins were expressed by adding 0.4 mM isopropyl β-D-thiogalactoside in E. coli cells grown in LB medium containing kanamycin, tetracycline, and carbenicillin at 23° C., with 250 rpm agitation, for 20 h. The protein was purified using a nickel-nitrilotriacetic acid column (Qiagen, Valencia, Calif.). And then, the protein samples were concentrated to 10 mg/ml.
# LOX-1 protein was incubated with fluorescent dye Sypro Orange (Invitrogen/Life Technologies, Grand Island, N.Y.) and the thermal unfolding of the LOX-1 protein was monitored by measuring the fluorescence using Bio-Rad Real Time PCR machine. We measured the melting temperatures in the absence and presence of the inhibitors 4 tM of LOX-1 protein was incubated with Sypro Orange and heated in stepwise increments of 0.5° C. per min from 25-99° C. The wavelength for excitation was set to 490 and emission was set to 575 nm for Sypro Orange. Fluorescence was measured after every minute for each 0.5° C. increase.
# ERK1/2 = test: ox-LDL-induced activation (phosphorylation) of ERK1/2 in HUVECs (Western blotting); format: cell-based, human; conditions: 200 nM
# Experimental: FIG. 4A, FIG. 4B, FIG. 4C, FIG. 4D and FIG. 4E depict the effect of lead molecules on ox-LDL-induced the activation of MAPKs in HUVECs, VCAM-1 expression and monocyte adhesion onto HUVECs. […] (FIG. 4B) Western blot analyses showing phospho-p38MAPK expression in HUVECs following exposure to 200 nM of each compound for 30 min, and subsequently exposed to 5 μg/mL ox-LDL for 6 hours. […] (FIG. 4D) The variation of VCAM-1 mRNA expression levels with different concentrations of the led compounds. The concentrations are indicated on the X-axis and the VCAM-1 mRNA levels are shown on the Y-axis. The plots for all five molecules are shown in separate colors. […] Graphs show data as mean (±SD); n=3 (for Western blot and PCR assays) or n=20 (for monocyte adhesion assay). *P<0.01 vs. control; #P<0.01 or <0.05 vs. ox-LDL group.
# To assess downstream effects of each candidate molecule, ox-LDL induced expression and activation of ERK1/2 and P38MAPK was measured in HUVECs in the absence or presence of each candidate molecule (200 nM). […] Importantly, unphosphorylated MAPKs were not affected by any of the candidate molecules.
# HUVECs were plated into 6-well cell culture plates. When the cells were reached 70% confluence, they were treated with 200 nM of each of 5 molecules for 30 min, and subsequently exposed to […] ox-LDL for 6 h. After washing with PBS for 2 times, the cells were treated with Cell Lysis Buffer (Promega, Madison, Wis.) with protease Inhibitor and phosphatase Inhibitor (Sigma-Aldrich, St. Louis, Mo.). The protein concentrations were measured by Bradford protein assay. Proteins (20 tg) were separated by electrophoresis in 12% precast SDS-PAGE gels, and were transferred onto Nitrocellulose Blotting Membrane (GE Healthcare Life Science, Piscataway, N.J.). The membranes were then incubated with LOX-1, VCAM-1 (Abcam, Cambridge, Mass.), ERK1/2, phospho-ERK1/2, phospho-p38MAPK (Cell Signaling Technology, Inc., Danvers, Mass.), or […] (Santa Cruz Biotechnology, Inc., Dallas, Tex.) primary antibodies (1:1000˜1:2000) in blocking solution at 4° C. overnight. Following wash with TBS-1 for 3 times, the blots were incubated with HRP-conjugated secondary antibodies (1:10000) in blocking solution for 1 hour at room temperature. After 3 washes with PBS, the blots were treated with Western Blotting Luminol Reagents (Santa Cruz Biotechnology) for 3 min and then exposed to Blue Basic Autorad Film (GeneMate, Kaysville, Utah). The protein bands were scanned by a Gel Doc™ XR System (Bio-Rad, Hercules, Calif.), and the density of each band was quantified by Image J software. The relative expression of target proteins was calculated with comparison to […] bands.
Compound,thermal shift (in words) (human LOX-1),effect on ox-LDL-induced activation/phosphorylation of ERK1/2 (in words) (ERK1/2),thermal shift of LOX-1 protein (human LOX-1) [°],effect on ox-LDL-induced activation/phosphorylation of ERK1/2 (in words) (ERK1/2; listed as MoL-4)
CCOCCCNC(=O)CCN1C(=O)COc2ccccc21 [Mol-1],did not show measurable shifts,significantly inhibited; also recorded: moderately,,
CC(C)(C)C(=O)NCCc1nc2ccccc2n1Cc1ccccc1F [Mol-2],did not show measurable shifts,no significant effect,,
CCCn1c(CCNC(=O)CCCO)nc2ccccc21 [Mol-4],significant thermal shift,potently reduced,10,significantly inhibited
"Cc1cc(C)n(CC(O)COc2ccccc2)n1 (centres unmarked) [Mol-5, 1-(3,5-dimethyl-1H-pyrazol-1-yl)-3-phenoxypropan-2-ol]",significant thermal shift,significantly inhibited; also recorded: maximum inhibition; also recorded: potently reduced,4,

# Source: patent publication US11465972B2, “Inhibitors of oxidized low-density lipoprotein receptor 1 and methods of use thereof” (United States Government as represented by the Department …, priority 2015, dated 2022)
